The results in this text go back to US9266878B2, “Phosphatidylinositol 3-kinase inhibitors” (Gilead Calistoga LLC, priority 2012, dated 2016).

Common to all, as to assay: Enzymatic activity of PI3K isoforms, TR-FRET assay (PIP3 formation)
Holding throughout (format): biochemical
Background: TR-FRET usually uses a lanthanide donor and a delayed reading to cut background.

The target in one assay is PI3Kβ (Homo sapiens (Human), UniProt P42338). In outline:
(§1)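 Recombinant heterodimeric class I PI3K enzymes were assayed by TR-FRET. PIP3 product displaces fluorescently labelled PIP3 from the GRP-1 PH domain, lowering the signal; IC50 values are given in nM.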

The target of a further assay is PI3Kγ (Homo sapiens (Human), UniProt P48736). In outline: as §1
The target in a further assay is PI3Kδ (Homo sapiens (Human), UniProt O00329). As to conditions: bound given in nM. The method, boiled down:
(§2)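 Heterodimeric recombinant class I PI3K; PIP3 product displaces labeled PIP3 from GRP-1 PH domain, lowering TR-FRET. Reaction 30 min at 25° C, stopped with 10 mM EDTA, 10 nM labeled-PIP3, 35 nM Eu-GRP-1. Read Ex 340 nm, Em 615/665 nm; IC50 in nM.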

For another assay, the target named is PI3Kα (Homo sapiens (Human), UniProt P42336). In outline:
as §2

Some results are limits rather than exact numbers.

Sequence of PI3Kβ (P42338 whole entry, the tested form may be a part): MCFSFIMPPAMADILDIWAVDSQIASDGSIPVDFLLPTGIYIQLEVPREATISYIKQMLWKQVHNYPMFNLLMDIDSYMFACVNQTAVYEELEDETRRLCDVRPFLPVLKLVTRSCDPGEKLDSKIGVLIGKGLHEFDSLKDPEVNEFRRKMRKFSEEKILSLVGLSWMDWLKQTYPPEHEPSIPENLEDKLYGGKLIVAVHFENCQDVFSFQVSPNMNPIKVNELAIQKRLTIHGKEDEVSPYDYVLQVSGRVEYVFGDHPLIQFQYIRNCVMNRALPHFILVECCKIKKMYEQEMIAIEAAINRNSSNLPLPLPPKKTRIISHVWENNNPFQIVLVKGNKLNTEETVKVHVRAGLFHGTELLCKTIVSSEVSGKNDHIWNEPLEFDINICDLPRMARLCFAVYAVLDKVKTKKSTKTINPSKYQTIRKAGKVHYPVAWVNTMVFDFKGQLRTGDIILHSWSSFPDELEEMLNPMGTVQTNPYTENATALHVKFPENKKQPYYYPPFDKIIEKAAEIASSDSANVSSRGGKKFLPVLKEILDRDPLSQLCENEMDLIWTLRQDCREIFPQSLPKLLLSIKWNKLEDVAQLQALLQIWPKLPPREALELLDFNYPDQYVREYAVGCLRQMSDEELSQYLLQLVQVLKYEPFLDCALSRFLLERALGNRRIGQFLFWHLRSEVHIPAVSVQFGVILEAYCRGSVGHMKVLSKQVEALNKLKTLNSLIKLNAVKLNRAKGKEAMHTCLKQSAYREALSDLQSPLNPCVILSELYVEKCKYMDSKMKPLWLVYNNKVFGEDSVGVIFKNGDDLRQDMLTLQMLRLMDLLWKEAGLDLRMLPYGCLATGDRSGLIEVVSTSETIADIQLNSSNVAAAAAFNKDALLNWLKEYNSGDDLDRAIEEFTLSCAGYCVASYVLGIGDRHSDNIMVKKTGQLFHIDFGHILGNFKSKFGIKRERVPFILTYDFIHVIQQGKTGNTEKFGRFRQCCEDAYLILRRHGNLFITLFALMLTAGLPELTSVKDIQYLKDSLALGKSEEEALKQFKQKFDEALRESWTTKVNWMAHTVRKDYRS
Sequence of PI3Kβ (P27986 whole entry partner, the tested form may be a part): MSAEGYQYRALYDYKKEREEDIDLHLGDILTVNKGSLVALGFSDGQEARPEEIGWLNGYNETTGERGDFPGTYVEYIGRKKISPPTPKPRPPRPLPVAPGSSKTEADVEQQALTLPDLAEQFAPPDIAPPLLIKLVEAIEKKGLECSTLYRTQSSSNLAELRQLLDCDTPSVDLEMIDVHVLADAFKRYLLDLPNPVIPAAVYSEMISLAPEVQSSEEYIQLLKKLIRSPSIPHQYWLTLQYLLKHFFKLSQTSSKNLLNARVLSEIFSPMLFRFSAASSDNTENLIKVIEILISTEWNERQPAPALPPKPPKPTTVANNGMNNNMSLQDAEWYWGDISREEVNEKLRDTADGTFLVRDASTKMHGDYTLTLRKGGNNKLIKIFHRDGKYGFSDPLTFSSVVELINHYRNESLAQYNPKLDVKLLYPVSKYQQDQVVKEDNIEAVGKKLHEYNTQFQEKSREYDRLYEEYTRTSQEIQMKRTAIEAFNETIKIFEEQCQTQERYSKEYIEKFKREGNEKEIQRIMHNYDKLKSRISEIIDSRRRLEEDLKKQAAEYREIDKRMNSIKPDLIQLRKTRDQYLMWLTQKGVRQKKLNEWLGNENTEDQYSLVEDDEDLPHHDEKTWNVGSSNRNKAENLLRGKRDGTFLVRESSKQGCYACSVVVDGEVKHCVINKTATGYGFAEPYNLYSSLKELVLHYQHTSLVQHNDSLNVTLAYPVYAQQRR
Sequence of PI3Kα (P42336 whole entry): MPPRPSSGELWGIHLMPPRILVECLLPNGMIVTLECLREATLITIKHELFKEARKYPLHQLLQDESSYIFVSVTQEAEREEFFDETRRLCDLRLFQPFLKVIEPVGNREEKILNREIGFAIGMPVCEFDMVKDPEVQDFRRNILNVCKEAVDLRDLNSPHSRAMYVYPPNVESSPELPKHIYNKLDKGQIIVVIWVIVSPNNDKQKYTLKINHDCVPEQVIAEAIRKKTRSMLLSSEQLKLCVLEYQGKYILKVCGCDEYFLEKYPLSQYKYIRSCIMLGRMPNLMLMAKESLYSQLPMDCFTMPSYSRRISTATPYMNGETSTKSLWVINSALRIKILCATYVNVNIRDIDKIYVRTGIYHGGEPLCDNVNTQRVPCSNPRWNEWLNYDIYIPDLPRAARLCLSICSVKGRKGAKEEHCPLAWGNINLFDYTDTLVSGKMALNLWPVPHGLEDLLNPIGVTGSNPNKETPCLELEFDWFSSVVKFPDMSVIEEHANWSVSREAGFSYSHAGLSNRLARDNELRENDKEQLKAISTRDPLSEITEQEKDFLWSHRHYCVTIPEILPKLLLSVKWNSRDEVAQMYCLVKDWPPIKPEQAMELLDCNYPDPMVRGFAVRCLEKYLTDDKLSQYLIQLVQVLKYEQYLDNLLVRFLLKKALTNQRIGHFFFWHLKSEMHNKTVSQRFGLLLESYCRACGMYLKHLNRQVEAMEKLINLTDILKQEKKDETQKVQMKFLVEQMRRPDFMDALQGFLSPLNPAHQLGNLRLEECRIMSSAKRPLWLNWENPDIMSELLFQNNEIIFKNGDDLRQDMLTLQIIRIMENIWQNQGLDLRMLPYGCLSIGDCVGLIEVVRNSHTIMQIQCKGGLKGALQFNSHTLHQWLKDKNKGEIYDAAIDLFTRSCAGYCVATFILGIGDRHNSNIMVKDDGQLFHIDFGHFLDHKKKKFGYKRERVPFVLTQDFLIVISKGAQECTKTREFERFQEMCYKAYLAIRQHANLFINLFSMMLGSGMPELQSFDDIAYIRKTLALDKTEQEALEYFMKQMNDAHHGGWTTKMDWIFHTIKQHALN
Sequence of PI3Kα (P27986 whole entry partner): as the sequence (P27986 whole entry partner, the tested form may be a part) above
Sequence of PI3Kδ (O00329 whole entry, the tested form may be a part): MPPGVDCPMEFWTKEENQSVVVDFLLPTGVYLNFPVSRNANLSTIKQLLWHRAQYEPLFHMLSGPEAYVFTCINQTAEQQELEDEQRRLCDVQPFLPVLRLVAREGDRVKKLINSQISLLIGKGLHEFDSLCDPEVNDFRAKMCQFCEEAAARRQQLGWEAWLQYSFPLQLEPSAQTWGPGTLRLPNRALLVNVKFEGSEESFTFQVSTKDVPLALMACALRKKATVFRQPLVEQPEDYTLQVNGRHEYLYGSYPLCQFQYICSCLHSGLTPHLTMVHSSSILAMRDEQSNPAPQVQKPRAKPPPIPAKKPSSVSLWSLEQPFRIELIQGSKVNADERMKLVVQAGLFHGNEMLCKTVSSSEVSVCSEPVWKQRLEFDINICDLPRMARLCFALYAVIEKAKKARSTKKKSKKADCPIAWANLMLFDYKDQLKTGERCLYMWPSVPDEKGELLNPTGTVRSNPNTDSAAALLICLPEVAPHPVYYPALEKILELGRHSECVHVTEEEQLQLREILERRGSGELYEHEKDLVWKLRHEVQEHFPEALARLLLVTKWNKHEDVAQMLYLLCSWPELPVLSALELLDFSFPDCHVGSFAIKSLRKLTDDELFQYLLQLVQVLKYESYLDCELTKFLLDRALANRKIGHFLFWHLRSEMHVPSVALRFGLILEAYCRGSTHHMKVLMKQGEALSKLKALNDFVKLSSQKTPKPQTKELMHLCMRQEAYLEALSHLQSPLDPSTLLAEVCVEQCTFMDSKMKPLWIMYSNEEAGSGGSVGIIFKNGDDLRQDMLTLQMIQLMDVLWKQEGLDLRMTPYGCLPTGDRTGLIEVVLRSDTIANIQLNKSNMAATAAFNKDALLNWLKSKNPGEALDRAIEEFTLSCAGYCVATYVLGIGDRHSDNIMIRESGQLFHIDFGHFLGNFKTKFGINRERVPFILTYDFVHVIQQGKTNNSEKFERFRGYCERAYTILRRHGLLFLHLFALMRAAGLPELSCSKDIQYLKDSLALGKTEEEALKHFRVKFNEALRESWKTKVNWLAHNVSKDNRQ
Sequence of PI3Kδ (P27986 whole entry partner, the tested form may be a part): as the sequence (P27986 whole entry partner, the tested form may be a part) above

Usually IC50 stands for the point on the concentration scale where inhibition reaches its midpoint. Consider `C[C@H](Nc1ncnc(N)c1C#Cc1cnccn1)c1nc2c(F)cccc2c(=O)n1-c1cc(F)cc(F)c1` [Compound 100a, (S)-2-(1-((6-amino-5-(pyrazin-2-ylethynyl)pyrimidin-4-yl)amino)ethyl)-3-(3,5-difluorophenyl)-8-fluoroquinazolin-4(3H)-one], for which the IC50 at PI3Kβ (bound given in uM) is over 1 µM; on PI3Kγ (bound given in uM) it was over 1 µM; on PI3Kδ, under 100 nM; on PI3Kα (bound given in uM), over 1 µM.
`C[C@H](Nc1ncnc(N)c1C#Cc1ccc(F)cn1)c1nc2c(F)cccc2c(=O)n1-c1cc(F)cc(F)c1` [Compound 2a, (S)-2-(1-((6-amino-5-((5-fluoropyridin-2-yl)ethynyl)pyrimidin-4-yl)amino)ethyl)-3-(3,5-difluorophenyl)-8-fluoroquinazolin-4(3H)-one]: the IC50 was over 1 µM against PI3Kβ (bound given in uM), over 1 µM against PI3Kγ (bound given in uM), under 100 nM at PI3Kδ and over 1 µM on PI3Kα (bound given in uM).
For the compound `C[C@H](Nc1ncnc(N)c1C#Cc1ccccc1)c1nc2cccc(F)c2c(=O)n1-c1cccc(C#N)c1` [Compound 110a, (S)-3-(2-(1-((6-amino-5-(phenylethynyl)pyrimidin-4-yl)amino)ethyl)-5-fluoro-4-oxoquinazolin-3(4H)-yl)benzonitrile], the IC50 was over 1 µM against PI3Kβ (bound given in uM), over 1 µM at PI3Kγ (bound given in uM), under 100 nM against PI3Kδ and over 1 µM on PI3Kα (bound given in uM).
With `C[C@H](Nc1ncnc(N)c1C#Cc1cnccn1)c1nc2cccc(F)c2c(=O)n1-c1cc(F)cc(F)c1` [Compound 87a, (S)-2-(1-((6-amino-5-(pyrazin-2-ylethynyl)pyrimidin-4-yl)amino)ethyl)-3-(3,5-difluorophenyl)-5-fluoroquinazolin-4(3H)-one], the IC50 was over 1 µM at PI3Kβ (bound given in uM), over 1 µM against PI3Kγ (bound given in uM), under 100 nM on PI3Kδ and over 1 µM at PI3Kα (bound given in uM).
`C[C@H](Nc1ncnc(N)c1C#Cc1cncnc1)c1nc2cccc(Cl)c2c(=O)n1-c1cc(F)cc(F)c1` [Compound 41a, (S)-2-(1-(6-amino-5-(pyrimidin-5-ylethynyl)pyrimidin-4-ylamino)ethyl)-5-chloro-3-(3,5-difluorophenyl)quinazolin-4(3H)-one]: the IC50 at PI3Kβ (bound given in uM) was over 1 µM; on PI3Kγ (bound given in uM), over 1 µM; against PI3Kδ, under 100 nM; at PI3Kα (bound given in uM), over 1 µM.
On to `C[C@H](Nc1ncnc(N)c1C#Cc1ccc(F)cn1)c1nc2cccc(C(F)F)c2c(=O)n1-c1cc(F)cc(F)c1` [Compound 77a, (S)-2-(1-((6-amino-5-((5-fluoropyridin-2-yl)ethynyl)pyrimidin-4-yl)amino)ethyl)-5-(difluoromethyl)-3-(3,5-difluorophenyl)quinazolin-4(3H)-one], for which the IC50 is over 1 µM against PI3Kβ (bound given in uM), over 1 µM against PI3Kγ (bound given in uM), under 100 nM at PI3Kδ and over 1 µM at PI3Kα (bound given in uM).
For `Cc1cccc2nc([C@H](C)Nc3ncnc(N)c3C#Cc3ccc(F)cn3)n(-c3cccc(CN(C)S(C)(=O)=O)c3)c(=O)c12` [Compound 128a, (S)—N-(3-(2-(1-((6-amino-5-((5-fluoropyridin-2-yl)ethynyl)pyrimidin-4-yl)amino)ethyl)-5-methyl-4-oxoquinazolin-3(4H)-yl)benzyl)-N-methylmethanesulfonamide], the IC50 was over 1 µM against PI3Kβ (bound given in uM), over 1 µM on PI3Kγ (bound given in uM), under 100 nM against PI3Kδ and over 1 µM on PI3Kα (bound given in uM).
Take `CCCCc1cccc(-n2c([C@H](C)Nc3ncnc(N)c3C#Cc3ccc(F)cn3)nc3cccc(Cl)c3c2=O)c1` [Compound 57a, (S)-2-(1-((6-amino-5-((5-fluoropyridin-2-yl)ethynyl)pyrimidin-4-yl)amino)ethyl)-3-(3-butylphenyl)-5-chloroquinazolin-4(3H)-one]: the IC50 was over 1 µM at PI3Kβ (bound given in uM), over 1 µM against PI3Kγ (bound given in uM), under 100 nM against PI3Kδ and over 1 µM at PI3Kα (bound given in uM).
As for `C[C@H](Nc1ncnc(N)c1C#Cc1ccc(F)cn1)c1nc2cccc(F)c2c(=O)n1-c1cc(F)cc(F)c1` [Compound 7a, (S)-2-(1-(6-amino-5-((5-fluoropyridin-2-yl)ethynyl)pyrimidin-4-ylamino)ethyl)-3-(3,5-difluorophenyl)-5-fluoroquinazolin-4(3H)-one], the IC50 against PI3Kβ (bound given in uM) is over 1 µM; at PI3Kγ (bound given in uM), over 1 µM; on PI3Kδ, under 100 nM; against PI3Kα (bound given in uM), over 1 µM.
With `Cc1ccc(F)c2nc([C@H](C)Nc3ncnc(N)c3C#Cc3ccc(F)cn3)n(-c3cccc(C#N)c3)c(=O)c12` [Compound 72a, (S)-3-(2-(1-((6-amino-5-((5-fluoropyridin-2-yl)ethynyl)pyrimidin-4-yl)amino)ethyl)-8-fluoro-5-methyl-4-oxoquinazolin-3(4H)-yl)benzonitrile], the IC50 was over 1 µM at PI3Kβ (bound given in uM), over 1 µM against PI3Kγ (bound given in uM), under 100 nM on PI3Kδ and over 1 µM against PI3Kα (bound given in uM).
As to `COc1cccc(-n2c([C@H](C)Nc3ncnc(N)c3C#Cc3ncccc3F)nc3cccc(Cl)c3c2=O)c1C` [81-2a], the IC50 is over 1 µM on PI3Kβ (bound given in uM), over 1 µM at PI3Kγ (bound given in uM), under 100 nM against PI3Kδ and over 1 µM against PI3Kα (bound given in uM).
As for `C[C@H](Nc1ncnc(N)c1C#Cc1ccccn1)c1nc2cccc(Cl)c2c(=O)n1-c1cc(F)cc(F)c1` [Compound 45a, (S)-2-(1-(6-amino-5-(pyridin-2-ylethynyl)pyrimidin-4-ylamino)ethyl)-5-chloro-3-(3,5-difluorophenyl)quinazolin-4(3H)-one], the IC50 was over 1 µM against PI3Kβ (bound given in uM), over 1 µM on PI3Kγ (bound given in uM), under 100 nM against PI3Kδ and over 1 µM against PI3Kα (bound given in uM).
Regarding `Cc1ccc(Cl)c2c(=O)n(-c3ccccc3)c([C@H](C)Nc3ncnc(N)c3C#Cc3ccc(F)cn3)nc12` [Compound 53a, (S)-2-(1-((6-amino-5-((5-fluoropyridin-2-yl)ethynyl)pyrimidin-4-yl)amino)ethyl)-5-chloro-8-methyl-3-phenylquinazolin-4(3H)-one], the IC50 against PI3Kβ (bound given in uM) is over 1 µM; at PI3Kγ (bound given in uM), over 1 µM; against PI3Kδ, under 100 nM; at PI3Kα (bound given in uM), over 1 µM.
`C[C@H](Nc1ncnc(N)c1C#CC(C)(C)O)c1nc2cccc(Cl)c2c(=O)n1-c1ccccc1` [Compound 29a, (S)-2-(1-(6-amino-5-(3-hydroxy-3-methylbut-1-ynyl)pyrimidin-4-ylamino)ethyl)-5-chloro-3-phenylquinazolin-4(3H)-one]: the IC50 was over 1 µM against PI3Kβ (bound given in uM), over 1 µM against PI3Kγ (bound given in uM), under 100 nM against PI3Kδ and over 1 µM against PI3Kα (bound given in uM).
In the case of `C[C@H](Nc1ncnc(N)c1C#Cc1cnccn1)c1nc2cccc(Cl)c2c(=O)n1C1C[C@H]2CC[C@@H](C1)N2C` (stereo partly drawn) [Compound 124a, 2-((S)-1-((6-amino-5-(pyrazin-2-ylethynyl)pyrimidin-4-yl)amino)ethyl)-5-chloro-3-((1R,5S)-8-methyl-8-azabicyclo[3.2.1]octan-3-yl)quinazolin-4(3H)-one], the IC50 on PI3Kβ (bound given in uM) is over 1 µM; at PI3Kγ (bound given in uM), over 1 µM; on PI3Kδ it was under 100 nM; against PI3Kα (bound given in uM), over 1 µM.
`C[C@H](Nc1ncnc(N)c1C#Cc1ccc(F)cn1)c1nc2cccc(F)c2c(=O)n1-c1ccccc1` [Compound 8a, (S)-2-(1-(6-amino-5-((5-fluoropyridin-2-yl)ethynyl)pyrimidin-4-ylamino)ethyl)-5-fluoro-3-phenylquinazolin-4(3H)-one]: the IC50 was over 1 µM against PI3Kβ (bound given in uM), over 1 µM at PI3Kγ (bound given in uM), under 100 nM against PI3Kδ and over 1 µM against PI3Kα (bound given in uM).
`C[C@H](Nc1ncnc(N)c1C#Cc1cnccn1)c1nc2ccc(F)cc2c(=O)n1-c1cccc(Cl)c1` [Compound 97a, (S)-2-(1-((6-amino-5-(pyrazin-2-ylethynyl)pyrimidin-4-yl)amino)ethyl)-3-(3-chlorophenyl)-6-fluoroquinazolin-4(3H)-one]: the IC50 on PI3Kβ (bound given in uM) is over 1 µM; on PI3Kγ (bound given in uM) it was over 1 µM; at PI3Kδ, under 100 nM; on PI3Kα (bound given in uM), over 1 µM.
In the case of `C[C@H](Nc1ncnc(N)c1C#Cc1cnc(N)cc1C(F)(F)F)c1nc2cccc(Cl)c2c(=O)n1-c1ccccc1` [Compound 18a, (S)-2-(1-(6-amino-5-((6-amino-4-(trifluoromethyl)pyridin-3-yl)ethynyl)pyrimidin-4-ylamino)ethyl)-5-chloro-3-phenylquinazolin-4(3H)-one], the IC50 is under 0.1 µM against PI3Kβ (bound given in nM), under 0.1 µM at PI3Kγ (bound given in nM), under 100 nM at PI3Kδ and under 0.1 µM against PI3Kα (bound given in nM).
In the case of `C[C@H](O)C#Cc1c(N)ncnc1N[C@@H](C)c1nc2cccc(Cl)c2c(=O)n1-c1ccccc1` [Compound 19b, 2-((S)-1-(6-amino-5-((S)-3-hydroxybut-1-ynyl)pyrimidin-4-ylamino)ethyl)-5-chloro-3-phenylquinazolin-4(3H)-one], the IC50 at PI3Kβ (bound given in uM) is over 1 µM; against PI3Kγ (bound given in uM), over 1 µM; against PI3Kδ, under 100 nM; at PI3Kα (bound given in uM), over 1 µM.
With `C[C@H](Nc1ncnc(N)c1C#Cc1cnccn1)c1nc2cccc(S(C)(=O)=O)c2c(=O)n1-c1ccccc1` [Compound 113a, (S)-2-(1-((6-amino-5-(pyrazin-2-ylethynyl)pyrimidin-4-yl)amino)ethyl)-5-(methylsulfonyl)-3-phenylquinazolin-4(3H)-one], the IC50 at PI3Kβ (bound given in uM) is over 1 µM; on PI3Kγ (bound given in uM), over 1 µM; against PI3Kδ, under 100 nM; against PI3Kα (bound given in uM) it was over 1 µM.
